From paper PMC9065678, “BI 1015550 is a PDE4B Inhibitor and a Clinical Drug Candidate for the Oral Treatment of Idiopathic Pulmonary Fibrosis” (Frontiers in Pharmacology, 2022)
Marks after values point to notes of the source that are not given here.

Columns and labels:
[1] = tested on: FN mRNA expression; assay: TGF-β-induced FN mRNA expression in IPF lung fibroblasts (Taqman); type: cell-based, human; details: IPF-LF, TGF-β 4 ng/mL, 48 h
Description: Fibroblasts from donors with IPF (IPF-LF) (Asterand, Detroit, MI, United States) were grown in fibroblast basal medium (CC-3131, Lonza Walkersville, Inc., Walkersville, MD, United States) supplemented with FGM-2 SingleQuot Kit Supplements and Growth Factors (CC-4126, Lonza). Cells were grown in a humidified incubator at 37°C and 5% CO2. All assays were performed at passage 7 or 8. For assay set-up, cells were seeded in fibroblast growth medium plus supplements in assay-relevant densities. For TGF-β-stimulated assays, cells were seeded at 4,500 cells per well in 96-well plates. Proliferation assays were performed in 96-well plates at an initial seeding cell density on day 0 of 2,000 cells per well. After 24-h, the cell culture medium was changed to starvation medium (fibroblast basal medium without supplements). […]
For determination of Col1A1, Col3A1, and FN mRNA expression, IPF-LF cells were stimulated with TGF-β (4 ng/mL) for 48 h. […] Quantitative real-time polymerase chain reactions were set up using the TaqMan™ Fast Advanced Master Mix (Applied Biosystems, Carlsbad, CA, United States) and species-specific gene expression assays: Col1A1 #Hs00164004_m1 FAM, Col3A1 #Hs0094309_m1 FAM, FN #Hs01549976_m1 FAM, 18S #4310893E. […] Fold-change of gene expression was calculated by the Viia7 software (regulation based upon housekeeper).

[2] = tested on: silica-induced lung fibrosis; assay: Silica-induced lung inflammation and fibrosis in the mouse; type: in vivo; details: mice
Description: BI 1015550 was given at doses of 0.25, 0.75, and 2.5 mg/kg b.i.d. in Natrosol 0.5% (10 mL/kg) starting from day 10 after silica instillation until day 30 (therapeutic regimen). 8-week-old BL6 mice (mixed sex, Janvier Labs, Le Genest-Saint-Isle, France) were used. Details of the experimental methods are described elsewhere ([Lo Re et al., 2010]). Briefly, mice received silica particles at 2.5 mg/mouse by intranasal instillation. Control mice received the respective saline solution by intranasal instillation. Mice were killed 30 days after silica administration and macroscopic changes were recorded at post-mortem analysis. Lung weight was measured, BALF for total cell and differential cell counts as well as myeloperoxidase (MPO) activity and keratinocyte-derived cytokine (KC, the counterpart of human GRO protein) determination was generated, and lung histology (staining with HE and chromotrope-aniline blue with semi-quantitative analysis for the estimation of inflammation, granuloma, and fibrosis scores was done.

[3] = tested on: bleomycin-challenged mice; assay: Therapeutic bleomycin mouse model of lung fibrosis; type: in vivo
Description: Adult, test-naïve, male C57BL6/6J mice, aged 10–12 weeks from Charles River were used (weight 25–27 g). The model was performed essentially as described by [Ackermann et al. (2017)]. Briefly, bleomycin 1 mg/kg (Calbiochem, Darmstadt, Germany) was administered intratracheally in an application volume of 2 mL/kg body weight. Animals were weighed daily. […] BI 1015550 (at final doses of 2.5 and 12.5 mg/kg) was applied by oral gavage using a dose volume of 10 mL/kg twice daily (b.i.d.) from day 8 until day 13. On day 12, animals were anesthetized using 3–4% isoflurane, and lung density was assessed by micro-computed tomography (µCT) analysis with a Quantum FX µCT system (Perkin Elmer) with cardiac gating (without respiratory gating). Images were analyzed using MicroView 2.0 software (GE Healthcare). The Hounsfield unit (HU) corresponding to the peak of the HU-histogram for the segmented pixels was used as a measure of fibrosis. After µCT analysis, animals were allowed to awaken from anesthesia. On day 14, lung function [pressure-volume loops, FVC, and static lung compliance (Cstat)] was measured with a FlexiVent system (SCIREQ, Montreal, PQ, Canada). After the lung function measurement, animals were sacrificed by an overdose of Narcorene and lungs were lavaged with two-times 0.8 mL of PBS. BALF was used to determine differential cell counts (Sysmex XT-1800iVet) and the number of monocytes. Left lung lobes were fixed with 4% paraformaldehyde and inflated under 20 cm water pressure for 20 min. Samples were embedded in paraffin, sectioned (3 μm thickness), and stained for hematoxylin and eosin (HE) and Masson’s trichrome to assess general morphology and fibrotic change following standard histopathology operating protocols. Images were taken with an AxioCam MRm microscope camera using AxioVision software (Carl Zeiss Microscopy, LLC, White Plains, NY, United States). Lung sections stained with Masson’s trichrome were assessed for severity of pulmonary fibrosis using the Ashcroft score. The protocol used is therapeutic, i.e. treatment commenced at a time where lung fibrosis should have developed, in line with the recommendations of the American Thoracic Society panel on IPF models ([Jenkins et al., 2017]).

[4] = 0.25 mg/kg b.i.d. oral day 10–30
[5] = 0.75 mg/kg b.i.d. oral day 10–30
[6] = 2.5 mg/kg b.i.d. oral day 10–30
[7] = mice, 2.5 mg/kg b.i.d. oral day 8 to day 13, measured day 14
[8] = mice, 12.5 mg/kg b.i.d. oral day 8 to day 13, measured day 14, 12.5 mg/kg

Question: For `[O-][S+]1CCc2nc(N3CCC(c4ncc(Cl)cn4)CC3)nc(NC3(CO)CCC3)c21` (stereo not drawn) [BI 1015550], which IC50 [1] is on record?
Answer: 246 nM

Question: What about the “Fibrosis score, % change related to control animals” value (“Fibrosis score, % change related” for short) [2, 4] of the same molecule?
Answer: 5%

Question: And the “Granuloma score, % change related to control animals” value (shortened to “Granuloma score, % change related”) [2, 4]?
Answer: –16%

Question: What about the “Inflammation score, % change related to control animals” value (“Inflammation score, % change related” for short) [2, 4] of the same molecule?
Answer: –4%

Question: And the “KC in BALF, % change related to control animals” value (shortened to “KC in BALF, % change related”) [2, 4]?
Answer: 4%

Question: What about the “Lung weight, % change related to control animals” value (“Lung weight, % change related” below) [2, 4] of the same molecule?
Answer: –57%

Question: And the “Lymphocytes in BALF, % change related to control animals” value (shortened to “Lymphocytes in BALF, % change related”) [2, 4]?
Answer: –18%

Question: And the “MPO in BALF, % change related to control animals” value (“MPO in BALF, % change related” for short) [2, 4]?
Answer: –2%

Question: And the “Macrophages in BALF, % change related to control animals” value (“Macrophages in BALF, % change related” below) [2, 4]?
Answer: –29%

Question: What about the “Neutrophils in BALF, % change related to control animals” value (shortened to “Neutrophils in BALF, % change related”) [2, 4] of the same molecule?
Answer: –35%

Question: And the “Total cells in BALF, % change related to control animals” value (“Total cells in BALF, % change related” for short) [2, 4]?
Answer: –27%

Question: And the “Fibrosis score, % change related” value [2, 5]?
Answer: –10%

Question: What about the “Granuloma score, % change related” value [2, 5] of the same molecule?
Answer: –11%

Question: And the “Inflammation score, % change related” value [2, 5]?
Answer: 4%

Question: And the “KC in BALF, % change related” value [2, 5]?
Answer: –39%

Question: What about the “Lung weight, % change related” value [2, 5] of the same molecule?
Answer: –46%

Question: What about the “Lymphocytes in BALF, % change related” value [2, 5] of the same molecule?
Answer: 49%

Question: What about the “MPO in BALF, % change related” value [2, 5] of the same molecule?
Answer: –22%

Question: What about the “Macrophages in BALF, % change related” value [2, 5] of the same molecule?
Answer: –11%

Question: What about the “Neutrophils in BALF, % change related” value [2, 5] of the same molecule?
Answer: 8%

Question: And the “Total cells in BALF, % change related” value [2, 5]?
Answer: –13%

Question: What about the “Fibrosis score, % change related” value [2, 6] of the same molecule?
Answer: –15%

Question: And the “Granuloma score, % change related” value [2, 6]?
Answer: –32%

Question: What about the “Inflammation score, % change related” value [2, 6] of the same molecule?
Answer: –19%

Question: And the “KC in BALF, % change related” value [2, 6]?
Answer: –27%

Question: And the “Lung weight, % change related” value [2, 6]?
Answer: –46%

Question: And the “Lymphocytes in BALF, % change related” value [2, 6]?
Answer: –12%

Question: And the “MPO in BALF, % change related” value [2, 6]?
Answer: –34%

Question: What about the “Macrophages in BALF, % change related” value [2, 6] of the same molecule?
Answer: –38* %

Question: And the “Neutrophils in BALF, % change related” value [2, 6]?
Answer: –46* %

Question: And the “Total cells in BALF, % change related” value [2, 6]?
Answer: –28%

Question: What about the “Effect on BALF protein and monocytes, airway compliance” value ([3]; bleomycin mice) of the same molecule?
Answer: no effects

Question: And the “Effect on weight gain” value ([3]; bleomycin mice, data not shown)?
Answer: no significant effect

Question: What about the “Fibrosis < score, % improvement compared to bleomycin control” value ([3]; mice, 2.5 mg/kg b.i.d. oral day 8 to day 13) of the same molecule?
Answer: 2%

Question: What about the “Cstat (mL/cm H2O), % improvement compared to bleomycin control” value [3, 7] of the same molecule?
Answer: 21%

Question: And the “FVC (mL), % improvement compared to bleomycin control” value [3, 7]?
Answer: 18%

Question: What about the “Ratio tissue density, % improvement compared to bleomycin control” value ([3]; mice, 2.5 mg/kg b.i.d. oral day 8 to day 13, µCT) of the same molecule?
Answer: 4%

Question: What about the “Fibrosis < score, % improvement compared to bleomycin control” value ([3]; mice, 12.5 mg/kg b.i.d. oral day 8 to day 13) of the same molecule?
Answer: 11%

Question: And the “Cstat (mL/cm H2O), % improvement compared to bleomycin control” value [3, 8]?
Answer: 40* %

Question: What about the “FVC (mL), % improvement compared to bleomycin control” value [3, 8] of the same molecule?
Answer: 41%

Question: What about the “Ratio tissue density, % improvement compared to bleomycin control” value ([3]; mice, 12.5 mg/kg b.i.d. oral day 8 to day 13, µCT) of the same molecule?
Answer: 39%

Question: What about the “Improvement in PV loops” value ([3]; mice, higher dose (12.5 mg/kg b.i.d.), p < 0.05) of the same molecule?
Answer: 40%
